In data set [1] the test system is wild type AR (MDA 453 cells). The following applies: read-out: Kd for [3H]-DHT, Scatchard analysis. As for the experimental part: For the whole-cell binding assay, human LNCaP cells (T877A mutant AR) or MDA 453 (wild type AR) in 96-well microtiter plates containing RPMI 1640 or DMEM supplemented with 10% charcoal stripped CA-FBS (Cocaleco Biologicals) respectively, were incubated at 37° C. to remove any endogenous ligand that might be complexed with the receptor in the cells.
For the saturation analysis, the difference between the total binding and the non-specific binding, was defined as specific binding. […] See e.g. D. Rodbard, Mathematics and statistics of ligand assays: an illustrated guide: In: J. Langon and J. J. Clapp, eds., Ligand Assay, Masson Publishing U.S.A., Inc., New York, pp. 45-99, (1981), the disclosure of which is herein incorporated by reference.
Two replicates were used for each sample.

A further data set concerns the target T1, AR (Rattus norvegicus, UniProt P15207).
T1 sequence (P15207 1-902): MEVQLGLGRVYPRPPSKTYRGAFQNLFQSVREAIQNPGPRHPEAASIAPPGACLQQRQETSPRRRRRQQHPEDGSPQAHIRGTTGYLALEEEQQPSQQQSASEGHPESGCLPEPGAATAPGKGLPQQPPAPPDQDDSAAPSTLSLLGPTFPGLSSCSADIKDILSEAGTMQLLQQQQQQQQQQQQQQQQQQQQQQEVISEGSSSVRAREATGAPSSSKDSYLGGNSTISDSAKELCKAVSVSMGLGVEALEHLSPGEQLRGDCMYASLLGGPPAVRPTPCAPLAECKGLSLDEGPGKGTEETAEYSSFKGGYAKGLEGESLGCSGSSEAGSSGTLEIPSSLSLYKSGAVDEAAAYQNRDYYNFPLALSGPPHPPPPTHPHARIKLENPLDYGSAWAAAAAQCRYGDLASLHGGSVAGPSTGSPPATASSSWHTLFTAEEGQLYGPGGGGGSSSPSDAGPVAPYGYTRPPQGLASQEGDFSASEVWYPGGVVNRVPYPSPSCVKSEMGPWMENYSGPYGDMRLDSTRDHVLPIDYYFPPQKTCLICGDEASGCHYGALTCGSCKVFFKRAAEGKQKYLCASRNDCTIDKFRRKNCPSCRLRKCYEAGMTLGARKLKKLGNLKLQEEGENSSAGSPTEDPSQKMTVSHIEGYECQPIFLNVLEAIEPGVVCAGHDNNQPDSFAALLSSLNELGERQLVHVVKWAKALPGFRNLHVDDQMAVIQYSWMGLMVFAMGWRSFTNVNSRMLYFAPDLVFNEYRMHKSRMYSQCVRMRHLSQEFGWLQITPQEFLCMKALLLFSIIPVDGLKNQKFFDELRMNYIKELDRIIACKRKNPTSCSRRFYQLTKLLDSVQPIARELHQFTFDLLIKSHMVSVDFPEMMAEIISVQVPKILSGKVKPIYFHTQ
The source says: The activity of compounds of the present invention as AR agonists was investigated in an immature male rat model, a recognized test of anabolic effects in muscle and sustaining effects in sex organs for a given compound, as described in L. G. Hershberger et al., Proc. Soc. […] Biol. Med., 83, 175 (1953); B. L. Beyler et al, “Methods for evaluating anabolic and catabolic agents in laboratory animals”, J. Amer. Med. Women's Ass., 23, 708 (1968); H. Fukuda et al., “Investigations of the levator ani muscle as an anabolic steroid assay”, Nago Dai. Yak. Ken. Nem. 14, 84 (1966) the disclosures of which are herein incorporated by reference.
The basis of this assay lies in the well-defined action of androgenic agents on the maintenance and growth of muscle tissues and sexual accessory organs in animals and man. […] J. Anat. […] Ital. Biol. Sper. […] II. […] Ital. Biol. Sper. 42, 1600 (1966); A. Boris et al., Steroids 15, 61 (1970). As described above, the effects of androgens on maintenance of male sexual accessory organs, such as the prostate and seminal vesicles, is well described. Castration results in rapid involution and atrophy of the prostate and seminal vesicles. This effect can be reversed by exogenous addition of androgens. […]

In the case of “tritiated dihydrotestosterone [[^3H]-DHT]”, the Kd (commonly a measure of binding affinity in units of concentration) in data set [1] came out at 700 pM. Turning to `N#Cc1ccc(N2C(=O)N/C(=C\c3ccccc3O)C2=O)c2ccccc12`, the melting point (usually the temperature of the solid-liquid transition) lay within 251 to 252 °C. For the compound `CCC(=O)O[C@H]1CC[C@H]2[C@@H]3CCC4=CC(=O)CC[C@]4(C)[C@H]3CC[C@]12C` [TP, testosterone propionate], the “potency relative to free T” value at AR (TP versus free T) was 10-30 fold. Besides, the “EC50 (increase in organ weight)” value at AR (castrated rats, dosing for 3 days) is on record as approximately 0.03 mg.

Consider `N#Cc1ccc(N2C(=O)N/C(=C\c3ccc(O)cc3)C2=O)c2ccccc12`, for which the melting point was more than 275 °C.

(Values after patent US7256208B2 (priority 2003, dated 2007).)
